# Measurements from BindingDB's records for doi:10.1021/jm00021a021 (Tsukuba Research Institute, 1995).
# Molecular target: T1, Endothelin-1 receptor (Sus scrofa, UniProt Q29010)
# T1 sequence (Q29010 whole entry): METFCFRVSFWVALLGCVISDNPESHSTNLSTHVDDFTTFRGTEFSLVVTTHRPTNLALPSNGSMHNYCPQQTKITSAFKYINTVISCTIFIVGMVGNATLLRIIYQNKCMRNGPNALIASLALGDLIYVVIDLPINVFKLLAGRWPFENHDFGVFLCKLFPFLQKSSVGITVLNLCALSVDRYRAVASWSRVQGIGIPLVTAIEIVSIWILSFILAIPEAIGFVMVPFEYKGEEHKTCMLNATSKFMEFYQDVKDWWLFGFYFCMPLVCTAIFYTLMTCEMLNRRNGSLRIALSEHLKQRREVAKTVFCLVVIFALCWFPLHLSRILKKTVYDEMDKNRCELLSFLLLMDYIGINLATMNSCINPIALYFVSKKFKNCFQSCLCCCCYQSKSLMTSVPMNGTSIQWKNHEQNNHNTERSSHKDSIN
# Test: The compound was tested for binding inhibitory activity against Endothelin A receptor from porcine aortic smooth muscle membranes.
compound,measurement,value
CC(C)C[C@@H]1NC(=O)[C@@H](CC(C)C)NC(=O)[C@H](C)NC(=O)[C@@H](CC(=O)O)NC(=O)[C@@H](Cc2c[nH]c3ccccc23)NC1=O,IC50,440 nM
